The subject of the assay is HCT116 MTAP-/- cells. Description: Cell growth inhibition test (SRB staining). Format: cell-based. Conditions: Homo sapiens, HCT-116, 144 h; HCT116 MTAP-/- cells, 0.64 nM - 2,000 nM, 6 dose points, 6 days, SRB staining, absorbance at 540 nm; read-out: HCT116 MTAP-/- cell growth inhibition (GI50). As to the method:
The synthetic compounds above were tested for cell growth inhibition against HCT116 cells.
HCT116 MTAP-/- (homozygous knockout of MTAP gene in HCT116 MTAP-WT cells by CRISPER/Cas9 method) cells were maintained in RPMI1640 medium containing 10 % FBS and 1 % penicillin-streptomycin. Approximately 5×10^2 cells were seeded in a 96-well plate and treated with a test compound. (0.64 nM - 2,000 nM, 6 dose points for HCT116 MTAP-/- cells for 5x and 6 days) cell growth was measured by SRB staining and absorbance was detected at 540 nm on a Synergy™ NEO microplate reader. The 50 % growth inhibition value (GI50) of the cell line was calculated using GraphPad Prism V9 software.

With `Cc1ncccc1-n1c(=O)c2nc(Cc3ccc(F)cc3)n(C)c2c2ccc(Cl)cc21` [Compound 28, 7-chloro-2-(4-fluorobenzyl)-1-methyl-5-(2-methylpyridin-3-yl)-1,5-dihydro-4H-imidazo[4,5-c]quinolin-4-one], the GI50 was less than 100 nM.
With `Cc1ncccc1-n1c(=O)c2nc(Cc3ccc4c(c3)OCO4)n(C)c2c2ccc(Cl)cc21` [Compound 29, 2-(benzo[d][1,3]dioxol-5-ylmethyl)-7-chloro-1-methyl-5-(2-methylpyridin-3-yl)-1,5-dihydro-4H-imidazo[4,5-c]quinolin-4-one] the figure was less than 100 nM; with `Cc1ncccc1-n1c(=O)c2nc(Cc3ccc(F)c(F)c3)n(C)c2c2ccc(Cl)cc21` [Compound 30, 7-chloro-2-(3,4-difluorobenzyl)-1-methyl-5-(2-methylpyridin-3-yl)-1,5-dihydro-4H-imidazo[4,5-c]quinolin-4-one], less than 100 nM.
In the case of `COc1ccc(Cc2nc3c(=O)n(-c4cccnc4)c4cc(Cl)ccc4c3n2C)cc1` [Compound 31, 7-chloro-2-(4-methoxybenzyl)-1-methyl-5-(pyridin-3-yl)-1,5-dihydro-4H-imidazo[4,5-c]quinolin-4-one] it was less than 100 nM; in that of `COc1ccc(Cc2nc3c(=O)n(-c4ccc(F)cc4)c4cc(Cl)ccc4c3n2C)cc1` [Compound 32, 7-chloro-5-(4-fluorophenyl)-2-(4-methoxybenzyl)-1-methyl-1,5-dihydro-4H-imidazo[4,5-c]quinolin-4-one], greater than 1000 nM; in that of `Cc1ncccc1-n1c(=O)c2nc(Cc3ccc(OC(F)F)cc3)n(C)c2c2ccc(Cl)cc21` [Compound 33, 7-chloro-2-(4-(difluoromethoxy)benzyl)-1-methyl-5-(2-methylpyridin-3-yl)-1,5-dihydro-4H-imidazo[4,5-c]quinolin-4-one], less than 100 nM.
In the case of `COc1ccc(Sc2nc3c(=O)n(-c4ccc(OC)cc4)c4cc(Cl)ccc4c3n2C)cc1` [Compound 34, 7-chloro-5-(4-methoxyphenyl)-2-((4-methoxyphenyl)thio)-1-methyl-1,5-dihydro-4H-imidazo[4,5-c]quinolin-4-one] it was greater than 1000 nM; in that of `COc1ccc(Sc2nc3c(=O)n(-c4cccnc4C)c4cc(Cl)ccc4c3n2C)cc1` [Compound 35, 7-chloro-2-((4-methoxyphenyl)thio)-1-methyl-5-(2-methylpyridin-3-yl)-1,5-dihydro-4H-imidazo[4,5-c]quinolin-4-one], less than 100 nM; in that of `Cc1ncccc1-n1c(=O)c2nc(Sc3ccc(F)cc3)n(C)c2c2ccc(Cl)cc21` [Compound 36, 7-chloro-2-((4-fluorophenyl)thio)-1-methyl-5-(2-methylpyridin-3-yl)-1,5-dihydro-4H-imidazo[4,5-c]quinolin-4-one], less than 100 nM.
In the case of `Cc1ncccc1-n1c(=O)c2nc(Sc3ccc(F)c(F)c3)n(C)c2c2ccc(Cl)cc21` [Compound 37, 7-chloro-2-((3,4-difluorophenyl)thio)-1-methyl-5-(2-methylpyridin-3-yl)-1,5-dihydro-4H-imidazo[4,5-c]quinolin-4-one], the GI50 was less than 100 nM.
In the case of `Cc1ncccc1-n1c(=O)c2nc(Sc3ccc4c(c3)OCO4)n(C)c2c2ccc(Cl)cc21` [Compound 38, 2-(benzo[d][1,3]dioxol-5-ylthio)-7-chloro-1-methyl-5-(2-methylpyridin-3-yl)-1,5-dihydro-4H-imidazo[4,5-c]quinolin-4-one] it was less than 100 nM; in that of `Cc1ncccc1-n1c(=O)c2nc(Sc3ccc(F)cc3F)n(C)c2c2ccc(Cl)cc21` [Compound 39, 7-chloro-2-((2,4-difluorophenyl)thio)-1-methyl-5-(2-methylpyridin-3-yl)-1,5-dihydro-4H-imidazo[4,5-c]quinolin-4-one], less than 100 nM; in that of `COc1ccc(Nc2nc3c(=O)n(-c4ccccc4)c4cc(Cl)ccc4c3n2C)cc1` [Compound 40, 7-chloro-2-((4-methoxyphenyl)amino)-1-methyl-5-phenyl-1,5-dihydro-4H-imidazo[4,5-c]quinolin-4-one], greater than 1000 nM.
As to `COc1ccc(N(C)c2nc3c(=O)n(-c4ccccc4)c4cc(Cl)ccc4c3n2C)cc1` [Compound 41, 7-chloro-2-((4-methoxyphenyl)(methyl)amino)-1-methyl-5-phenyl-1,5-dihydro-4H-imidazo[4,5-c]quinolin-4-one], the GI50 is greater than 1000 nM.
With `COc1ccc(Oc2nc3c(=O)n(-c4ccccc4)c4cc(Cl)ccc4c3n2C)cc1` [Compound 42, 7-chloro-2-(4-methoxyphenoxy)-1-methyl-5-phenyl-1,5-dihydro-4H-imidazo[4,5-c]quinolin-4-one] the figure was greater than 1000 nM.
With `COc1ccc(Cc2nc3c(=O)n(-c4cccnc4C)c4cc(O)ccc4c3n2C)cc1` [Compound 43, 7-Hydroxy-2-(4-methoxybenzyl)-1-methyl-5-(2-methylpyridin-3-yl)-1,5-dihydro-4H-imidazo[4,5-c]quinolin-4-one] the figure was greater than 1000 nM.
In the case of `C=Cc1ccc2c3c(nc(Cc4ccc(OC)cc4)n3C)c(=O)n(-c3cccnc3C)c2c1` [Compound 44, 2-(4-methoxybenzyl)-1-methyl-5-(2-methylpyridin-3-yl)-7-vinyl-1,5-dihydro-4H-imidazo[4,5-c]quinolin-4-one] it was less than 100 nM.
As to `CCc1ccc2c3c(nc(Cc4ccc(OC)cc4)n3C)c(=O)n(-c3cccnc3C)c2c1` [Compound 45, 7-Ethyl-2-(4-methoxybenzyl)-1-methyl-5-(2-methylpyridin-3-yl)-1,5-dihydro-4H-imidazo[4,5-c]quinolin-4-one], the GI50 was less than 100 nM.
As for `COc1ccc(Cc2nc3c(=O)n(-c4cccnc4C)c4cc(C5CC5)ccc4c3n2C)cc1` [Compound 46, 7-Cyclopropyl-2-(4-methoxybenzyl)-1-methyl-5-(2-methylpyridin-3-yl)-1,5-dihydro-4H-imidazo[4,5-c]quinolin-4-one], the GI50 is less than 100 nM.
With `C#Cc1ccc2c3c(nc(Cc4ccc(OC)cc4)n3C)c(=O)n(-c3cccnc3C)c2c1` [Compound 47, 7-ethynyl-2-(4-methoxybenzyl)-1-methyl-5-(2-methylpyridin-3-yl)-1,5-dihydro-4H-imidazo[4,5-c]quinolin-4-one] the figure was less than 100 nM.
In the case of `COc1ccc(Cc2nc3c(=O)n(-c4cccnc4C)c4cc(C(C)C)ccc4c3n2C)cc1` [Compound 48, 7-isopropyl-2-(4-methoxybenzyl)-1-methyl-5-(2-methylpyridin-3-yl)-1,5-dihydro-4H-imidazo[4,5-c]quinolin-4-one] it was 100 to 500 nM; in that of `COc1ccc(Cc2nc3c(=O)n(-c4cccnc4C)c4cc(C)ccc4c3n2C)cc1` [Compound 49, 2-(4-methoxybenzyl)-1,7-dimethyl-5-(2-methylpyridin-3-yl)-1,5-dihydro-4H-imidazo[4,5-c]quinolin-4-one], 100 to 500 nM; in that of `COc1ccc(Cc2nc3c(=O)n(-c4cccnc4C)c4cc(N5CCCC5)ccc4c3n2C)cc1` [Compound 50, 2-(4-methoxybenzyl)-1-methyl-5-(2-methylpyridin-3-yl)-7-(pyrrolidin-1-yl)-1,5-dihydro-4H-imidazo[4,5-c]quinolin-4-one], greater than 1000 nM.
As to `COc1ccc(Cc2nc3c(=O)n(-c4cccnc4C)c4cc(OC)ccc4c3n2C)cc1` [Compound 51, 7-methoxy-2-(4-methoxybenzyl)-1-methyl-5-(2-methylpyridin-3-yl)-1,5-dihydro-4H-imidazo[4,5-c]quinolin-4-one], the GI50 was less than 100 nM.
With `COc1ccc(Cc2nc3c(=O)n(-c4cccnc4C)c4cc(N)ccc4c3n2C)cc1` [Compound 52, 7-amino-2-(4-methoxybenzyl)-1-methyl-5-(2-methylpyridin-3-yl)-1,5-dihydro-4H-imidazo[4,5-c]quinolin-4-one] the figure was 500 to 1000 nM.
In the case of `CNc1ccc2c3c(nc(Cc4ccc(OC)cc4)n3C)c(=O)n(-c3cccnc3C)c2c1` [Compound 53, 2-(4-methoxybenzyl)-1-methyl-7-(methylamino)-5-(2-methylpyridin-3-yl)-1,5-dihydro-4H-imidazo[4,5-c]quinolin-4-one] it was less than 100 nM.
For `CCc1ccc2c3c(nc(Cc4ccc(OC(F)F)cc4)n3C)c(=O)n(-c3cccnc3C)c2c1` [Compound 54, 2-(4-(difluoromethoxy)benzyl)-7-ethyl-1-methyl-5-(2-methylpyridin-3-yl)-1,5-dihydro-4H-imidazo[4,5-c]quinolin-4-one], the GI50 is less than 100 nM.
In the case of `COc1ccc2c3c(nc(Cc4ccc(OC(F)F)cc4)n3C)c(=O)n(-c3cccnc3C)c2c1` [Compound 55, 2-(4-(Difluoromethoxy)benzyl)-7-methoxy-1-methyl-5-(2-methylpyridin-3-yl)-1,5-dihydro-4H-imidazo[4,5-c]quinolin-4-one] it was less than 100 nM; in that of `COc1ccc(Cc2nc3c(=O)n(-c4ccc(OC(F)F)cc4)c4nc(C(F)(F)F)ccc4c3n2C)cc1` [Compound 56, 5-(4-(Difluoromethoxy)phenyl)-2-(4-methoxybenzyl)-1-methyl-7-(trifluoromethyl)-1,5-dihydro-4H-imidazo[4,5-c][1,8]naphthyridin-4-one], greater than 1000 nM.
Turning to `COc1ccc(Cc2nc3c(=O)n(-c4cccnc4C)c4nc(C(F)(F)F)ccc4c3n2C)cc1` [Compound 57, 2-(4-methoxybenzyl)-1-methyl-5-(2-methylpyridin-3-yl)-7-(trifluoromethyl)-1,5-dihydro-4H-imidazo[4,5-c][1,8]naphthyridin-4-one], the GI50 was less than 100 nM.

The record behind these values is EP4582423A1, “NOVEL TRICYCLIC DERIVATIVE COMPOUND AND USES THEREOF” (Hanmi Pharm. Co., Ltd., priority 2022, dated 2024).
